From patent US12570696B2, “Tumor-specific polypeptide sequence and use thereof” (SHENZHEN GINO BIOTECHNOLOGY CO., LTD., priority 2019, dated 2026)
Values joined by “and” are separate entries in the source; they are usually repeats but may differ in a detail not shown here. Identical values can stand only once.

Key:
[1] = molecular target: T1, MHC I molecules on the surfaces of T2 cells (HLA-A*11:01) (Homo sapiens, UniProt P04439, A114D/D185E/E176A/F33Y/L180Q/S129P/T187R); experiment: Verification of affinity of polypeptide with T2 cells (flow cytometry, fluorescence index); format: cell-based
T1 construct: endogenous in cells; host or cells: T2 cells
Excerpt: T2 cells are a necessary antigen polypeptide transporter-deficient cell line in the endogenous antigen presentation pathway, and can be used to study the strength of the mutual recognition with MHC molecules in the antigen presentation process.
In order to verify the affinity of exogenous polypeptides with T2 cells, a polypeptide that had been confirmed to have strong affinity with T2 cells was used as positive control, and T2 cells without adding polypeptides were used as background control. […] Based on this, the affinity of the polypeptide with T2 cells is determined. The higher the FI value, the stronger the affinity of the polypeptide with T2 cells, which is conducive to the subsequent recognition of specific CD8^+ T cells.
The synthesized polypeptides were added to 2*10^5 T2 cells, and human β2 micro-globulin (with a final concentration of 3 μg/ml) was added and cultivated in 24-well plate. The plate was cultured in an incubator (37° C., 5% CO2) overnight. […] (SEQ ID NO: 9), which is a viral peptide and is also a known polypeptide with strong affinity with T2 cells, was used as a positive control, duplicate wells for each experiment, and the average value was calculated.
[…] for 5 minutes to collect the cells. […] The mean fluorescence intensity was then detected and analyzed by a flow cytometer (BD FACSJazz™) and its software, see FIG. 2.

[2] = system: CD8+ T cells; experiment: ELISPOT verification of activation of CD8+ T cell immune response (IFN-gamma secretion); format: cell-based, human
Protocol: (§1) The peripheral blood mononuclear cells (PBMCs) were collected from the volunteers who were positive for the corresponding subtype of the polypeptide. For 2×10^7 PBMCs, mononuclear cells were separated by using the adherent method (adhered for 3 h), and CD8^+ T cells were isolated by using CD8 magnetic beads. The adherent mononuclear cells were induced to immature DC cells by using GM-CSF (1000 U/ml) and IL-4 (1000 U/ml). Then, the adherent cells were induced into polypeptide-specific mature DC cells by IFN-gamma (100 U/ml), LPS (10 ng/ml), and the respective polypeptides. The obtained polypeptide-specific mature DC cells were co-cultured with volunteers' CD8^+ T cells, and IL-21 was added. After 3 days, IL-2 and IL-7 were supplemented. Thereafter, IL-2 and IL-7 were supplemented on day 5 and day 7, and on day 10, the co-cultured cells were counted, and the subsequent ELISPOTs and LDH were detected.
The ELISPOT method is an enzyme-linked immunospot assay, which can detect the cytokines secreted by a single cell. In the assay, the culture plate was coated with specific monoclonal antibodies, and then the cells to be detected and antigenic stimulant were added for culture. Under the stimulation of the stimulant, the corresponding cytokines were secreted by the T cells, and the secreted cytokines were captured by the antibodies coated on the culture plate. After washing away the cells, the captured cytokines were bonded to […] secondary antibodies to form spots. […]
With reference to the specification in the ELISPOT kit, the cells cultured in Example 4, T2 cells loaded with testing polypeptide ([…], SEQ ID NO: 2), and T2 cells loaded with irrelevant polypeptide (referring to a polypeptide not stimulating T cells to secrete IFN-gamma interferon and having a specific sequence of […], the irrelevant polypeptide used in the following examples also refers to this sequence) were added respectively to the ELISPOT plate for cultivation, and ELISPOTs were detected after 20 hours (see the specification of the ELISPOT kit). […]

[3] = system: T2 cells; experiment: LDH release assay of polypeptide-specific killing activity of CD8+ T cells; format: cell-based; settings: triplicate wells
Protocol: as §1
LDH is an enzyme present in the cytoplasm. LDH will be released into the culture medium when the cell membrane is damaged. Since the released LDH is stable, the measured amount of LDH in the medium can be used as an indicator to measure the number of dead and damaged cells.
The cells cultured in Example 4 were co-cultured with the T2 cells loaded with the testing polypeptide or the irrelevant polypeptide or no polypeptide. In the assay, maximum release wells, volume correction wells, medium control wells, spontaneous release wells, different effect-target ratios (the ratio of the number of T cells to the number of T2 cells) were set, triplicated wells for each group. After 4 hours, 50 μl of the co-cultured cell supernatant was taken and added to 50 μl of LDH substrate mixture, allowing the cell supernatant to catalyze the LDH substrate reaction, finally reading at the wavelength of 490 nm and the reference wavelength of 680 nm. Based on the control wells, the killing activity of […] killing T2 cells was calculated. The greater the value shown in Table 4, the stronger the killing effect.

[4] = system: HCC827 subcutaneous tumor model; experiment: Polypeptide vaccine in mouse subcutaneous transplanted tumor model; format: in vivo, NOD/SCID mice; settings: polypeptide + Freund's adjuvant, 4 immunizations, compared with wild-type polypeptide group and adjuvant group, FIG. 4
Excerpt: (§2) This model was used to verify the tumor control effect of the polypeptide pharmaceutical combination, the antigen-presenting cell, and the vaccine proposed by the present disclosure. • 1. The encoding gene of each polypeptide was introduced by lentivirus transfection, and the recombinant lentivirus expressing the above-mentioned mutant polypeptide or a variant thereof was constructed and packaged. • 2. Construction of human-derived lung cancer cell line expressing the polypeptides
(§3) The human lung cancer cell line HCC827 was purchased from ATCC (No: CRL-2868), and its HLA subtype was HLA-A*1101 positive. Cells were cultured in DMEM medium containing 10% fetal bovine serum, 100 U/mL penicillin and streptomycin, in an incubator at 37° C., 5% CO2. […]
(§4) The established human lung cancer cell line was cultured in DMEM medium containing 10% fetal bovine serum, 100 U/mL penicillin and streptomycin, in an incubator at 37° C., 5% CO2. […] The subcutaneous tumor model NOD/SCID mice with immune reconstitution for 4 weeks were treated with DC vaccine, and the tumor volumes were recorded every 3 to 4 days. […]
The first immunization dosage of the polypeptide of each group was […] per mouse. […] After the injection, the vital signs of the mice were observed, and the vertical and horizontal sizes of the tumor were measured with a vernier caliper every 3 to 4 days. […]

[5] = system: HCC827 subcutaneous tumor model; experiment: DC polypeptide vaccine in mouse subcutaneous transplanted tumor model; format: in vivo, NOD/SCID mice; settings: polypeptide-loaded DC cells, intradermal, 2 injections; compared with wild-type and blank polypeptide-loaded DC groups; FIG. 5
Excerpt: as §2
as §3, with “CO2. The packaged lentivirus was transfected into the HCC827 cell line, and antibiotic puromycin was used to continuously screen the surviving HCC827 cell line, and finally the HCC827 cell line expressing the polypeptides was established. • 3. NOD SCID mouse human immune reconstitution” for “CO2.”
as §4

[6] = system: HCC827 subcutaneous tumor model; experiment: Polypeptide-specific DC-CTL vaccine in mouse subcutaneous transplanted tumor model; format: in vivo, NOD/SCID mice; settings: polypeptide-activated CTLs reinfused through the tail vein; compared with blank polypeptide and wild-type polypeptide groups; FIG. 6
Excerpt: as §2, §3
The established human lung cancer cell line was cultured in DMEM medium containing 10% fetal bovine serum, 100 U/mL penicillin and streptomycin, in an incubator at 37° C., 5% CO2. […] The subcutaneous tumor model NOD/SCID mice with immune reconstitution for 4 weeks were treated with DC vaccine, and the tumor volumes were recorded every 3 to 4 days.
The PBLs collected in Example 9 were sorted by magnetic beads to obtain CD8^+ T cells. […] The culture medium was incubated with 500 IU/ml IL-2 and 50 ng/ml IL-7, in an incubator at 37° C. with 5% CO2, and the cells were counted after 1 week of culture. […]

Sequence: RHGGWTTK (Mutant polypeptide)
- Conclusion (T2 cell affinity) ([1]; compared with the positive control): High affinity
- FI ([1]; fluorescence index, T2 cells, overnight, FITC anti-HLA-A*11:01 antibody, flow cytometry): 2.12
- Number of spots produced by using irrelevant polypeptide as stimulant ([2]; IFN-gamma ELISPOT, T2 cells loaded with irrelevant polypeptide LSYRNKPSI, 20 hours): 11
- Number of spots produced by using testing polypeptide as stimulant ([2]; IFN-gamma ELISPOT, T2 cells loaded with testing polypeptide, 20 hours): 104
- Multiple (testing/irrelevant) ([2]; ratio of spot numbers, >=2 regarded as having immunogenicity): 9
- Killing activity, T + T2 (loaded with no polypeptide) ([3]; E:T = 1:1, 4 hours): 0.322 and 0.279 and 0.298
- Killing activity, T + T2 + irrelevant polypeptide ([3]; E:T = 1:1, 4 hours): 0.278 and 0.293 and 0.308
- Killing activity, T + T2 + testing polypeptide ([3]; E:T = 1:1, 4 hours): 0.324 and 0.351
- Killing activity, T + T2 (loaded with no polypeptide) ([3]; E:T = 10:1, 4 hours): 0.413 and 0.352 and 0.364
- Killing activity, T + T2 + irrelevant polypeptide ([3]; E:T = 10:1, 4 hours): 0.436 and 0.371 and 0.407
- Killing activity, T + T2 + testing polypeptide ([3]; E:T = 10:1, 4 hours): 0.406 and 0.397 and 0.414
- Mouse tumor growth (tumor volume), polypeptide vaccine [4]: can significantly slow down the mouse tumor growth
- Mouse tumor growth (tumor volume), polypeptide-loaded DC vaccine [5]: can significantly slow down the mouse tumor growth
- Mouse tumor growth (tumor volume), DC-CTL vaccine [6]: can significantly slow down the mouse tumor growth
